Measurements taken from the supplement of paper PMC11208160.

Experiment: recombinant UMI read abundance after kanamycin selection (control-corrected) (log10(CPM+1)); higher = more efficient recombination; extreme values may be limits of the assay; sequences stand for … in AGTGCAGAGAAAATCGGCCAGTTTTCTCTGCCTGCAGTCCGCATGCCGTGGGACCCCTTGGGTTCTAACCTGTTGCCTAGATTTATGCAGCGGACTGCCTTTCTCCCAAAGTGATAAACCGG…AGGTTGGTTTCACT; site = the 11-nt donor
In short: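 Values are reported as log10(CPM+1), obtained by converting sequencing counts to CPM, averaging replicates and scaling by control-derived factors. The counts came from recombinant UMIs amplified by PCR across the donor–target junction. These UMIs came from a pooled Escherichia coli screen of donor and donor-binding-loop pairs for the IS621 bridge recombinase, plated with IPTG (0.07 mM) plus kanamycin or left unselected, in two replicates each.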
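Also: IS621 bridge recombinase in Escherichia coli cells against a fixed T5 target plasmid.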

Row | Sequence | recombinant UMI read abundance (log10)
1 | GTATGCACATGGACCGGTTTTCCCGGTAATCCGTATTTGTA (site GTACGCACTTA) | 1.72
2 | GTATGCACATGGACCGGTTTTCCCGGTAATCCGTATTTGTA (site GTAGGCACTTA) | 0.461
3 | GTATGCACATGGACCGGTTTTCCCGGTAATCCGTATTTGTA (site GTATACACTTA) | 2.07
4 | GTATGCACATGGACCGGTTTTCCCGGTAATCCGTATTTGTA (site GTATCCACTTA) | 0.28
5 | GTATGCACATGGACCGGTTTTCCCGGTAATCCGTATTTGTA (site GTATGAACTTA) | 0.66
6 | GTATGCACATGGACCGGTTTTCCCGGTAATCCGTATTTGTA (site GTATGCACTAA) | 0.126
7 | GTATGCACATGGACCGGTTTTCCCGGTAATCCGTATTTGTA (site GTATGCACTCA) | 0.0356
8 | GTATGCACATGGACCGGTTTTCCCGGTAATCCGTATTTGTA (site GTATGCACTGA) | 1.72
9 | GTATGCACATGGACCGGTTTTCCCGGTAATCCGTATTTGTA (site GTATGCACTTA) | 2.07
10 | GTATGCACATGGACCGGTTTTCCCGGTAATCCGTATTTGTA (site GTATGCACTTC) | 0.0256
11 | GTATGCACATGGACCGGTTTTCCCGGTAATCCGTATTTGTA (site GTATGCACTTG) | 1.71
12 | GTATGCACATGGACCGGTTTTCCCGGTAATCCGTATTTGTA (site GTATGCACTTT) | 0.44
13 | GTATGCACATGGACCGGTTTTCCCGGTAATCCGTATTTGTA (site GTATGCCCTTA) | 0.0248
14 | GTATGCACATGGACCGGTTTTCCCGGTAATCCGTATTTGTA (site GTATGCGCTTA) | 0.376
15 | GTATGCACATGGACCGGTTTTCCCGGTAATCCGTATTTGTA (site GTATGCTCTTA) | 1.19
16 | GTATGCACATGGACCGGTTTTCCCGGTAATCCGTATTTGTA (site GTATGGACTTA) | 0.0258

Row | Sequence | recombinant UMI read abundance (log10)
17 | GTATGCACATGGACCGGTTTTCCCGGTAATCCGTATTTGTA (site GTATGTACTTA) | 0.274
18 | GTATGCACATGGACCGGTTTTCCCGGTAATCCGTATTTGTA (site GTATTCACTTA) | 1.3
19 | GTATGCACATGGACCGGTTTTCCCGGTAATCCGTATTTGTA (site GTCTGCACTTA) | 0.0377
20 | GTATGCACATGGACCGGTTTTCCCGGTAATCCGTATTTGTA (site GTGTGCACTTA) | 0.384
21 | GTATGCACATGGACCGGTTTTCCCGGTAATCCGTATTTGTA (site GTTTGCACTTA) | 0
22 | GTATGCACATGGACCGGTTTTCCCGGTAATCCGTATTTGTA (site TTATGCACTTA) | 0.185
23 | GTATGTACATGGACCGGTTTTCCCGGTAATCCGTATTTGTA (site GTATGAACTTA) | 1.74
24 | GTATGTACATGGACCGGTTTTCCCGGTAATCCGTATTTGTA (site GTATGCACTTA) | 1.61
25 | GTATGTACATGGACCGGTTTTCCCGGTAATCCGTATTTGTA (site GTATGGACTTA) | 0.499
26 | GTATGTACATGGACCGGTTTTCCCGGTAATCCGTATTTGTA (site GTATGTACTTA) | 2.09
27 | GTATGTCCATGGACCGGTTTTCCCGGTAATCCGTATTTGAG (site GTATGTCCTCT) | 0.428
28 | GTATTAACATGGACCGGTTTTCCCGGTAATCCGTATTTGTG (site GTATTAACTCA) | 2.02
29 | GTCACGCCATGGACCGGTTTTCCCGGTAATCCGTATTTGTA (site GACACGCCTTA) | 0.00466
30 | GTCACGCCATGGACCGGTTTTCCCGGTAATCCGTATTTGTA (site GCCACGCCTTA) | 0
31 | GTCACGCCATGGACCGGTTTTCCCGGTAATCCGTATTTGTA (site GGCACGCCTTA) | 0.00905
32 | GTCACGCCATGGACCGGTTTTCCCGGTAATCCGTATTTGTA (site GTCACGCCTTA) | 0.476
